Data reported in EP4273147A1, “SUBSTITUTED SPIROLACTAMS, SALTS THEREOF AND THEIR USE AS HERBICIDALLY ACTIVE SUBSTANCES” (Bayer Aktiengesellschaft, priority 2022, dated 2023).

Columns and labels:
ALOMY [1] = assay: Herbicidal post-emergence action, section E (Table E2); type: in vivo, Alopecurus myosuroides; conditions: application rate 320 g/ha; assessed visually after ca. 3 weeks
Source text: (§1) 2 to 3 weeks after sowing, the test plants were sprayed in the single-leaf stage.

KCHSC [2] = assay: Herbicidal pre-emergence action (Table A10); type: in vivo, Kochia scoparia; conditions: application rate 320 g/ha; visual grading after ca. 3 weeks
Method in brief: (§2)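 For this pre-emergence setup, sandy loam pots received seeds of one monocot and one dicot weed species each. The seeds were then covered with soil.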

MATIN [3] = assay: Herbicidal post-emergence action (Table B6); type: in vivo, Matricaria inodora; conditions: application rate 1280 g/ha; rated visually after about 3 weeks
Method in brief: (§3)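 Visual rating of activity versus untreated plants about 3 weeks after treatment: 0% means no difference from controls, 100% means complete kill. Test weeds were raised from seed in sandy loam under controlled greenhouse conditions and sprayed at the one-leaf stage.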

GLXMA = assay: Post-emergence effects on crop plants (Table F4); type: in vivo, Glycine max; conditions: application rate 80 g/ha, crop plant GLXMA
Source text: as §1

ECHCG [4] = assay: Herbicidal pre-emergence action, section C (Table C6); type: in vivo, Echinochloa crus-galli; conditions: visual grading after ca. 3 weeks
ALOMY [5] = assay: Herbicidal pre-emergence action (Table A9); type: in vivo, Alopecurus myosuroides; conditions: application rate 1280 g/ha; visual grading after ca. 3 weeks
Method in brief: as §2

ECHCG [6] = assay: Herbicidal post-emergence action (Table B3); type: in vivo, Echinochloa crus-galli; conditions: application rate 1280 g/ha; rated visually after about 3 weeks
Method in brief: as §3

ECHCG [7] = assay: Herbicidal post-emergence action, section E (Table E5); type: in vivo, Echinochloa crus-galli; conditions: application rate 320 g/ha; assessed visually after ca. 3 weeks
Source text: as §1

VIOTR = assay: Herbicidal pre-emergence action, section C (Table C12); type: in vivo, Viola tricolor; conditions: application rate 80 g/ha; visual grading after ca. 3 weeks
ABUTH [8] = assay: Herbicidal pre-emergence action (Table A1); type: in vivo, Abutilon theophrasti; conditions: application rate 1280 g/ha; visual grading after ca. 3 weeks vs untreated controls (100% = plants have died off, 0% = as control plants)
Method in brief: as §2

ECHCG [9] = assay: Herbicidal pre-emergence action (Table A2); type: in vivo, Echinochloa crus-galli; conditions: application rate 320 g/ha; visual grading after ca. 3 weeks
Method in brief: as §2

BRSNW = assay: Post-emergence effects on crop plants (Table F5); type: in vivo, Brassica napus; conditions: application rate 320 g/ha, crop plant BRSNW
Source text: as §1

POAAN = assay: Herbicidal pre-emergence action (Table A7); type: in vivo, Poa annua; conditions: application rate 320 g/ha; visual grading after ca. 3 weeks
Method in brief: as §2

LOLRI [10] = assay: Herbicidal pre-emergence action (Table A3); type: in vivo, Lolium rigidum; conditions: application rate 320 g/ha; visual grading after ca. 3 weeks
Method in brief: as §2

ZEAMX [11] = assay: Post-emergence effects on crop plants (Table F1); type: in vivo, Zea mays; conditions: application rate 80 g/ha, crop plant ZEAMX
Source text: as §1

MATIN [12] = assay: Herbicidal pre-emergence action (Table A4); type: in vivo, Matricaria inodora; conditions: application rate 320 g/ha; visual grading after ca. 3 weeks
Method in brief: as §2

ABUTH [13] = assay: Herbicidal post-emergence action (Table B1); type: in vivo, Abutilon theophrasti; conditions: application rate 1280 g/ha; treated at one-leaf stage; rated visually after about 3 weeks vs untreated controls (100% = plants have died, 0% = like control plants)
Method in brief: as §3

DIGSA [14] = assay: Herbicidal pre-emergence action, section C (Table C5); type: in vivo, Digitaria sanguinalis; conditions: visual grading after ca. 3 weeks
Source text: Seeds of mono- and dicotyledonous weed plants and crop plants were sown, in plastic or organic planting pots, in sandy loam and covered with soil. The compounds according to the invention, formulated in the form of wettable powders (WP) or as emulsifiable concentrates (EC), were applied to the surface of the covering soil as aqueous suspension or emulsion, with the addition of 0.5% of an additive, at an application rate of 600 1 of water/ha (converted). Following treatment, the pots were placed in a greenhouse and kept under optimum growth conditions for the test plants.

SETVI [15] = assay: Herbicidal pre-emergence action, section C (Table C10); type: in vivo, Setaria viridis; conditions: application rate 80 g/ha; visual grading after ca. 3 weeks
SETVI [16] = assay: Herbicidal post-emergence action (Table B8); type: in vivo, Setaria viridis; conditions: application rate 1280 g/ha
Method in brief: as §3

ALOMY [17] = assay: Herbicidal pre-emergence action, section C (Table C2); type: in vivo, Alopecurus myosuroides; conditions: visual grading after ca. 3 weeks
VERPE [18] = assay: Herbicidal pre-emergence action (Table A11); type: in vivo, Veronica persica; conditions: application rate 1280 g/ha; visual grading after ca. 3 weeks
Method in brief: as §2

STEME = assay: Herbicidal pre-emergence action (Table A6); type: in vivo, Stellaria media; conditions: application rate 320 g/ha; visual grading after ca. 3 weeks
Method in brief: as §2

KCHSC [19] = assay: Herbicidal post-emergence action (Table B4); type: in vivo, Kochia scoparia; conditions: application rate 1280 g/ha; rated visually after about 3 weeks
Protocol: (§4) Seeds of mono- and dicotyledonous weed plants were placed in plastic pots in sandy loam soil (doubly sown with in each case one species of mono- or dicotyledonous weed plants per pot), covered with soil and cultivated in a greenhouse under controlled growth conditions. 2 to 3 weeks after sowing, the test plants were treated at the one-leaf stage. […] After the test plants had been kept in the greenhouse under optimum growth conditions for about 3 weeks, the activity of the preparations was rated visually in comparison to untreated controls. For example, 100% activity = the plants have died, 0% activity = like control plants.

ORYZA [20] = assay: Post-emergence effects on crop plants (Table F3); type: in vivo, Oryza sativa; conditions: application rate 320 g/ha, crop plant ORYZA
Source text: as §1

SETVI [21] = assay: Herbicidal pre-emergence action (Table A5); type: in vivo, Setaria viridis; conditions: application rate 1280 g/ha; visual grading after ca. 3 weeks
Method in brief: as §2

VERPE [22] = assay: Herbicidal post-emergence action, section E (Table E9); type: in vivo, Veronica persica; conditions: application rate 320 g/ha; assessed visually after ca. 3 weeks
Source text: as §1

MATIN [23] = assay: Herbicidal pre-emergence action, section C (Table C8); type: in vivo, Matricaria inodora; conditions: application rate 320 g/ha; visual grading after ca. 3 weeks
DIGSA [24] = assay: Herbicidal post-emergence action (Table B12); type: in vivo, Digitaria sanguinalis; conditions: application rate 1280 g/ha
Protocol: as §4

VERPE [25] = assay: Herbicidal post-emergence action (Table B10); type: in vivo, Veronica persica; conditions: application rate 1280 g/ha
Method in brief: as §3

ABUTH [26] = assay: Herbicidal pre-emergence action, section C (Table C1); type: in vivo, Abutilon theophrasti; conditions: application rate 320 g/ha; visual grading after ca. 3 weeks
ORYZA [27] = assay: Pre-emergence effects on crop plants (Table D3); conditions: crop plant; application rate 80 g/ha; visual grading after ca. 3 weeks
LOLRI [28] = assay: Herbicidal pre-emergence action, section C (Table C7); type: in vivo, Lolium rigidum; conditions: application rate 80 g/ha; visual grading after ca. 3 weeks
DIGSA [29] = assay: Herbicidal pre-emergence action (Table A12); type: in vivo, Digitaria sanguinalis; conditions: application rate 320 g/ha; visual grading after ca. 3 weeks
Method in brief: as §2

AMARE [30] = assay: Herbicidal pre-emergence action (Table A8); type: in vivo, Amaranthus retroflexus; conditions: application rate 1280 g/ha; visual grading after ca. 3 weeks vs untreated controls (100% = plants have died off, 0% = as control plants)
Method in brief: as §2

ZEAMX [31] = assay: Pre-emergence effects on crop plants (Table D1); type: in vivo, Zea mays; conditions: crop plant; application rate 80 g/ha; visual grading after ca. 3 weeks
LOLRI [32] = assay: Herbicidal post-emergence action (Table B5); type: in vivo, Lolium rigidum; conditions: application rate 1280 g/ha; rated visually after about 3 weeks
Method in brief: as §3

TRZAS = assay: Post-emergence effects on crop plants (Table F2); type: in vivo, Triticum aestivum; conditions: application rate 320 g/ha, crop plant TRZAS
Source text: as §1

VERPE [33] = assay: Herbicidal pre-emergence action, section C (Table C11); type: in vivo, Veronica persica; conditions: application rate 80 g/ha; visual grading after ca. 3 weeks
AMARE [34] = assay: Herbicidal pre-emergence action, section C (Table C3); type: in vivo, Amaranthus retroflexus; conditions: application rate 320 g/ha; visual grading after ca. 3 weeks

SMILES: O=C1N(Cc2cccc(F)c2F)CCC12CCCN(Cc1c(F)cccc1F)C2=O (racemic) [I-015]
- post-emergence activity against ALOMY (ALOMY [1]): 80%
- pre-emergence activity against KCHSC (KCHSC [2]): 90%
- post-emergence activity against MATIN (MATIN [3]): 90%
- post-emergence activity against GLXMA (GLXMA): 20%
- pre-emergence activity against ECHCG (ECHCG [4]; application rate 80 g/ha): 100%
- pre-emergence activity against ALOMY (ALOMY [5]): 90%
- post-emergence activity against ECHCG (ECHCG [6]): 90%
- post-emergence activity against ECHCG (ECHCG [7]): 90%
- pre-emergence activity against VIOTR (VIOTR): 90%
- pre-emergence activity against ABUTH (ABUTH [8]): 90%
- pre-emergence activity against ECHCG (ECHCG [9]): 100%
- post-emergence activity against BRSNW (BRSNW): 0%
- pre-emergence activity against POAAN (POAAN): 100%
- pre-emergence activity against LOLRI (LOLRI [10]): 100%
- post-emergence activity against ZEAMX (ZEAMX [11]): 0%
- pre-emergence activity against MATIN (MATIN [12]): 90%
- post-emergence activity against ABUTH (ABUTH [13]): 90%
- pre-emergence activity against DIGSA (DIGSA [14]; application rate 80 g/ha): 90%
- pre-emergence activity against SETVI (SETVI [15]): 90%
- post-emergence activity against SETVI (SETVI [16]): 90%
- pre-emergence activity against ALOMY (ALOMY [17]; application rate 80 g/ha): 90%
- pre-emergence activity against VERPE (VERPE [18]): 90%
- pre-emergence activity against STEME (STEME): 90%
- post-emergence activity against KCHSC (KCHSC [19]): 90%
- post-emergence activity against ORYZA (ORYZA [20]): 0%
- pre-emergence activity against SETVI (SETVI [21]): 100%
- post-emergence activity against VERPE (VERPE [22]): 80%
- pre-emergence activity against MATIN (MATIN [23]): 90%
- post-emergence activity against DIGSA (DIGSA [24]): 90%
- post-emergence activity against VERPE (VERPE [25]): 90%
- pre-emergence activity against ABUTH (ABUTH [26]): 90%
- pre-emergence activity against ORYZA (ORYZA [27]): 0%
- pre-emergence activity against LOLRI (LOLRI [28]): 100%
- pre-emergence activity against DIGSA (DIGSA [29]): 100%
- pre-emergence activity against AMARE (AMARE [30]): 90%
- pre-emergence activity against ZEAMX (ZEAMX [31]): 0%
- post-emergence activity against LOLRI (LOLRI [32]): 90%
- post-emergence activity against TRZAS (TRZAS): 0%
- pre-emergence activity against VERPE (VERPE [33]): 90%

SMILES: O=C1N(Cc2cc(F)c(F)cc2F)CCCC12CCCN(Cc1cc(F)c(F)cc1F)C2=O (racemic) [I-213, 2,8-bis[(2,4,5-trifluorophenyl)methyl]-2,8-diazaspiro[5.5]undecane-1,7-dione]
- pre-emergence activity against ECHCG (ECHCG [4]; application rate 320 g/ha): 100%
- pre-emergence activity against DIGSA (DIGSA [14]; application rate 320 g/ha): 80%
- pre-emergence activity against ALOMY (ALOMY [17]; application rate 320 g/ha): 90%
- pre-emergence activity against AMARE (AMARE [34]): 90%
